# d = 2'-deoxy (DNA); m = 2'-O-methyl; r = 2'-OH (RNA); f = 2'-fluoro
# Tests used:
# HBsAg [1] = settings: 0.1 mg/kg gastric gavage daily for 7 days
# Description: The drug dosages for all animals were calculated based on the body weight and the administration volume was 10 ml/kg. The PBS group and each of the RBP131/X2M2 groups were administered with a single dose via tail vein, and the entecavir group was administered by gastric gavage daily for 7 consecutive days, i.e., once a day from day 0 to day 6. Half of the animals was sacrificed in batches at day 7 and day 28, respectively. The expression levels of HBsAg in liver tissue were detected by the detection method as described above.
# [2] = prior application CN102140461B; cited from earlier work
# [3] = prior application CN102140461B; cited from earlier work; remark: listed apart in the source
# [4] = Stability of siRNAs in human plasma in vitro (gel, ratio of the longest fragments RL); format: in vitro ADME; settings: 50% human plasma
# Description: The siRNAs (20 μM, 10 μl) obtained in Preparation Example 1 were incubated with 50% human plasma (HP) at 37° C. in vitro for a certain time and samples were taken therefrom. Specifically, 10 μl samples were taken at 0, 2, 4, 6, 8, 24 and 48 hours respectively and immediately snap frozen in liquid nitrogen, followed by cryopreservation at −80° C. for future use. 20 wt % non-denaturing polyacrylamide gel was formulated, and 10 μl 5-fold diluted above samples (dilution solution: 1×PBS buffer at pH 7.4) and 4 μl loading buffer (20 mM EDTA, 36 wt % glycerol, 0.06 wt % bromophenol blue) were mixed and then loaded into the gel to perform electrophoresis for about 60 minutes under 80 mA constant current. After electrophoresis finished, the gel was stained with 1× Sybr Gold dye (Invitrogen, Cat. 11494) for 15 minutes followed by imaging.
# The ratio of the longest fragments remained after incubating the test siRNAs and control siRNAs with human plasma to the longest fragments of the siRNAs without the treatment of human plasma (i.e., the markers shown in FIG. 3) (also referred to as ratio of the longest fragments, RL) is calculated by reading the grayscale values quantitatively.
# HBV gene = settings: prior application CN102140461B; cited from earlier work
# HBV mRNA = test: Inhibition of HBV mRNA expression in transfected HepG2.2.15 cells (fluorescent qPCR); format: cell-based; settings: 50 nM, 10 nM and 1 nM siRNA, 48 hours after transfection
# Description: HepG2.2.15 cells were purchased from ATCC, cultured with DMEM complete medium (Gibco) containing 10% fetal bovine serum (FBS, Gibco), 2 mM L-glutamine (Gibco) and 380 μg/ml G418 in an incubator containing 5% CO2/95% air at 37° C.
# When using the siRNAs against the X gene region of HBV or the non-specific siRNAs as negative controls synthesized in Preparation Example 1 (all of which were synthesized by Suzhou Ribo Life Science Co., Ltd.) to transfect cells, Lipofectamine™ 2000 (Invitrogen) was used as a transfection reagent. The specific procedures thereof may refer to the instruction provided by the manufacturer. […]
# The final concentrations of the siRNAs were 50 nM, 10 nM and 1 nM, respectively. The expression levels of HBV mRNA in the above harvested cells were measured by real-time fluorescent qPCR 48 hours after transfection. Specifically, RNeasy Mini Kit (QIAGEN Co., Cat. 74106) was used to extract total RNAs according to the instructions thereof, and the extracted total RNAs were reverse transcribed into cDNAs, and then the inhibitory efficiency of the siRNAs on the expression of HBV mRNA in HepG2.2.15 cells was detected by fluorescent qPCR method. […]
# In this fluorescent qPCR method, the inhibitory activity of siRNA was expressed as the remaining expression of HBV gene, and was calculated as follows: […]
# HepG2.2.15 cells = test: MTT cytotoxicity assay in HepG2.2.15 cells; format: cell-based; settings: 500 nM concentration
# rat primary hepatocytes = test: MTT cytotoxicity assay in rat primary hepatocytes; format: cell-based; settings: 500 nM concentration
# HBsAg [5] = settings: 25 ng/g subcutaneously twice a week (day 0, 4, 7, 11, 14), day 7 to 28
# Description: The drug dosages for all animals were calculated based on the body weight and the administration volume was 10 ml/kg. […] The blood was taken from mouse orbital venous plexus before administration and at day 7, 14, 21, and 28 after administration, and serum HBsAg levels were measured for each time point.
# The volume of the blood taken out from the orbit was about 0.5 ml each time, and the volume of the serum was no less than 200 μl after centrifugation. HBsAg CLIA kit (Autobio, CL0310) was used to detect the expression levels of HBsAg in serum. The remaining expression of HBsAg was calculated as follows:
# The remaining expression of HBsAg=(the content of HBsAg in the test group/the content of HBsAg in the PBS control group)×100%, wherein the content of HBsAg was expressed in nanograms of HBsAg per gram of liver tissue proteins.
compound,measurement,setting,value
"C=C1[C@H](CO)[C@@H](O)C[C@@H]1n1cnc2c(=O)[nH]c(N)nc21 [ETV, entecavir]",inhibitory effect on the expression of HBsAg in the liver (in words),HBsAg [1],no inhibitory effect
"CA2: alternating modifications; sense CmCUmUGmAGmGCmAUmACmUUmCAmAAmdTdT, antisense UmUUmGAmAGmUAmUGmCCmUCmAAmGGmdTdT (sense CCUUGAGGCAUACUUCAAATT; antisense UUUGAAGUAUGCCUCAAGGTT; sugars from the 5' end mrmrmrmrmrmrmrmrmrmdd, backbone not given here) [reference compound]",stability in blood,[2],fails to reach a stable state in the blood
same,cytotoxicity compared to unmodified siRNA CA1,[3],higher cytotoxicity
same,RL (ratio of the longest fragments) 0 h,"[4]; 37° C., 0 h",100.0%
same,RL (ratio of the longest fragments) 2 h,"[4]; 37° C., 2 h",86.9%
same,RL (ratio of the longest fragments) 4 h,"[4]; 37° C., 4 h",76.5%
same,RL (ratio of the longest fragments) 6 h,"[4]; 37° C., 6 h",68.8%
same,RL (ratio of the longest fragments) 8 h,"[4]; 37° C., 8 h",67.7%
same,RL (ratio of the longest fragments) 24 h,"[4]; 37° C., 24 h",48.7%
same,RL (ratio of the longest fragments) 48 h,[4]; 37° C.,52.0%
same,plasma stability (in words),[4]; up to 48 h,improved but is still not satisfactory
same,activity at cell level compared to unmodified siRNA CA1,HBV gene,poorer activity at cell level
"X2M2: siRNA against HBV X gene; sense CmCmUmUmGAGGCmAUmACmUmUmCmAAA-dTdT, antisense UfUmUfGAAGUfAUGCCUfCAAGG-dTdT; covers S++, S−−, S+−, S−+ (sense CCUUGAGGCAUACUUCAAATT; antisense UUUGAAGUAUGCCUCAAGGTT; sense: DNA at T, 2'-O-methyl at CU, RNA at AG, backbone not given here; antisense: sugars from the 5' end fmfrrrrfrrrrrfrrrrrdd, backbone not given here; phosphorothioate variants at dT overhangs exist)","inhibitory activity on HBV mRNA expression in HepG2.2.15 cells (FIG. 2, in words)",HBV mRNA,excellent activity at cell level
same,RL (ratio of the longest fragments) 48 h,[4]; 37° C.,≥ 90%
same,band position / full-length state on gel (FIG. 3),[4]; up to 48 h,maintain a full-length state all the time
same,plasma stability (in words),[4]; up to 48 h,more excellent plasma stability than siRNA A4
same,cytotoxicity by MTT assay,HepG2.2.15 cells,no cytotoxicity was observed
same,cytotoxicity by MTT assay,rat primary hepatocytes,no cytotoxicity was observed
interferon [IFN],inhibitory effect on the expression of HBsAg in serum (in words),HBsAg [5],no inhibitory effect

# Source: US20190062749A1, “SIRNA, PHARMACEUTICAL COMPOSITION AND CONJUGATE WHICH CONTAIN SIRNA, AND USES THEREOF” (priority 2015, published 2019)
